One data set concerns the target T1, STING HAQ-variant (Homo sapiens, UniProt Q86WV6, G230A/H232R/R293Q/R71H).
T1 construct: parental THP1-Blue™ ISG cell lines (which express endogenously HAQ); host or cells: THP1-Blue ISG (parental, endogenous HAQ) or STING-KO clone re-transduced with HAQ (MSCV-ires-GFP-Blasti)
As to the kind of experiment: IRF-inducible SEAP reporter assay in THP1-Blue ISG cells, STING HAQ-variant. It counts as cell-based. The settings on record: STING HAQ-variant (parental or re-introduced), 24 hours incubation. The source says: (§1) In Vitro Cytokine Induction Measured Via Activation of an Interferon Regulatory Factor Inducible Reporter Gene
(§2) Activation of the STING protein expressed in cell lines results in an increase of interferon production. By the stable integration of an interferon regulatory factor (IRF)-inducible SEAP gene (secreted embryonic alkaline phosphatase) reporter construct the functional interferon signaling pathway can be monitored. Using Invivogen's THP1-Blue™ ISG colorimetric enzyme assay and a suitable optical density (OD) reader the activity of SEAP can be detected and quantified. This technique could be used to characterize pharmacological modification of the STING pathway.
(§3) Several single nucleotide polymorphisms have been identified in the human STING gene. To determine the activity of the above described compounds, THP1-Blue™ ISG reporter cell lines expressing the different human STING variants have been generated. To do so, the endogenous human STING was first deleted using the CRISPR/CAS9 system: THP1-Blue ISG cells were electroporated with ALL-IN-ONE CRISPR plasmids targeting the STING gene (purchased from Sigma encoding the gRNA and GFP as a reporter gene for successful transduction). GFP positive cells then were sorted 24 h post transfection and expanded. Cells were then dispersed in semisolid methocel medium to allow single cell clone isolations. Clones were then screened for cGAMP responsiveness using the Quanti-Blue™ reporter assay. Non-responsive clones were subsequently analysed for STING loss by western blotting and sequencing of the STING locus.
(§4) For the overexpression of the human STING variants, a confirmed THP1-Blue™ ISG hSTING KO clone was transduced with individual retroviral plasmids (MSCV-ires-GFP-Blasti) encoding the allelic variants of hSTING (WT (H232R), HAQ, R232H, AQ and R293Q). Transduced cells were sorted for different levels of GFP fluorescence and STING allele expression was analysed by western blot.
(§5) Measurements of SEAP activity were performed in THP1-Blue™ ISG cells stably expressing the different human STING isoforms and the IRF-inducible SEAP reporter construct. Cells were cultivated in RPMI1640 medium with 10% fetal calf serum, 50 μg/ml Penicillin-Streptomycin, 100 μg/ml Zeocin, and 100 μg/ml Normocin in a 37°, 95% humidity and 5% CO2 incubator.
(§6) In preparation for the assay, the cells were distributed into the assay plates with a density of 10000 cells/15 μL per well. Compounds were prepared by an 8 point serial dilution in 50% aqueous DMSO and a final dilution step into medium to ensure a final DMSO concentration of 0.5% in the assay. 5 μL of diluted compounds were added to the plates, followed by a 24 hours incubation at 37° C.
(§7) At the day of the assay, 75 μl per well of Quanti-Blue™ reagent was added to all wells of the plate and the plate was incubated another 30 minutes at 37° C. The OD at 620 nm was measured on the EnVision reader (PerkinElmer).
(§8) EC50 values and Hill slopes were derived from 8-point four parametric non-linear curve fittings with the Megalab software (Boehringer Ingelheim) using the OD at 620 nm.
(§9) Data of EC50 values can be found in tables 2a-2e.
Data of EC50 values on STING HAQ-variant can be found in table 2a. Shown data below were either derived from the parental THP1-Blue™ ISG cell lines (which express endogenously HAQ) or from genetically engineered THP1-Blue™ ISG cell lines in which first STING has been knocked-out and the HAQ specific STING isoform has been re-introduced as described above.

Another data set has as its target T2, STING AQ-variant (Homo sapiens, UniProt Q86WV6, G230A/H232R/R293Q).
T2 construct: expressed in transfected cells; host or cells: THP1-Blue ISG hSTING KO clone, retroviral MSCV-ires-GFP-Blasti
As to the kind of experiment: IRF-inducible SEAP reporter assay in THP1-Blue ISG cells, STING AQ-variant. It counts as cell-based. To be noted: 24 hours incubation.
Excerpt: as §1, §2, §3, §4, §5, §6, §7, §8, §9
Data of EC50 values on STING AQ-variant can be found in table 2e: […]

A further data set can be described thus: in vitro. The settings on record: human, Caco-2, pH 7.4.
The target in the next data set is T3, STING H232R-variant (Homo sapiens, UniProt Q86WV6, H232R).
T3 construct: expressed in transfected cells; host or cells: THP1-Blue ISG hSTING KO clone, retroviral MSCV-ires-GFP-Blasti
The data set is described as follows: IRF-inducible SEAP reporter assay in THP1-Blue ISG cells, STING H232R-variant. The settings on record: STING H232R-variant (WT), 24 hours incubation. It counts as cell-based.
Excerpt: as §1, §2, §3, §4, §5, §6, §7, §8, §9
Data of EC50 values on STING H232R-variant can be found in table 2b: […]

Data set [1] has as its system Human STING (hSTING, residues 155-341). As to the kind of experiment: Interaction with hSTING as determined by Differential Scanning Fluorimetry (DSF). It counts as binding. To be noted: 100 μM test compounds, 5 μM target protein. On the procedure:
Interaction with hSTING as Determined by Differential Scanning Fluorimetry (DSF)
In DSF, the temperature at which a protein unfolds, also called the melting temperature Tm, is measured by changes in fluorescence of a dye that binds to the hydrophobic parts of the protein. Tm shifts upon binding of a small molecule are correlated with the binding affinity of this small molecule. As target protein, Human STING (hSTING, residues 155-341, MW: 21578.4 Da; protein stock solution: c=1302 μM stock solution in 20 mM Tris, 100 mM NaCl, 2 mM TCEP pH 8.8) was used, as assay buffer 20 mM Tris, 150 mM NaCI pH7.5 was added where and as necessary.
Final concentrations of components in assay: 100 μM test compounds, 5 μM target protein, “5×” SYPR Orange (from stock solution SYPRO orange solution in DMSO (invitrogen cat.-no. S6650-500 ul), concentration “5000×”)
1) Dilutions of compound stock solutions (10 mM in DMSO) were prepared in assay buffer (20 mM Tris, 150 mM NaCl; pH7.5)
2) 5 μl fluorescent dye stock solution (5000×SYPRO Orange in DMSO) was mixed with 19 μl target protein (1302 μM) and 976 μl assay buffer.
3) 2 μl of this protein-dye-mixture (25×SYPRO Orange and 25 μM Protein) was added to 8 μl diluted compound solution as prepared in step 1. Final volume was 10 μl.
4) With every 20 compounds, two negative controls were measured.
5) The plates were prepared for duplicate measurement and centrifuged for 2 min at 1000 g.
6) For the measurement, a CFX384 Real-Time System (Bio-Rad) was used. The run consisted of 140 cycles with 0.5° C./cycle (temperature ramp 15 s/cycle, 25° C. to 95° C.).
Data analysis: The melting curves were processed in Bio-Rad CFX Manager. Peak type was set to “negative”. Two replicates of TM (melting temperature) measurements were averaged and the standard deviation was calculated.

The target of another data set is T4, STING R232H-variant (Homo sapiens, UniProt Q86WV6).
T4 construct: expressed in transfected cells; host or cells: THP1-Blue ISG hSTING KO clone, retroviral MSCV-ires-GFP-Blasti
The data set is described as follows: IRF-inducible SEAP reporter assay in THP1-Blue ISG cells, STING R232H-variant. It counts as cell-based. The settings on record: 24 hours incubation.
Excerpt: as §1, §2, §3, §4, §5, §6, §7, §8, §9
Data of EC50 values on STING R232H-variant can be found in table 2c: […]

The next data set concerns the target T5, STING R293Q-variant (Homo sapiens, UniProt Q86WV6, H232R/R293Q).
T5 construct: expressed in transfected cells; host or cells: THP1-Blue ISG hSTING KO clone, retroviral MSCV-ires-GFP-Blasti
As to the kind of experiment: IRF-inducible SEAP reporter assay in THP1-Blue ISG cells, STING R293Q-variant. It counts as cell-based. To be noted: 24 hours incubation.
Excerpt: as §1, §2, §3, §4, §5, §6, §7, §8, §9
Data of EC50 values on STING R293Q-variant can be found in table 2d: […]

pEC50: −log10 of the molar value.

T1 sequence (Q86WV6 whole entry R71H/G230A/H232R/R293Q): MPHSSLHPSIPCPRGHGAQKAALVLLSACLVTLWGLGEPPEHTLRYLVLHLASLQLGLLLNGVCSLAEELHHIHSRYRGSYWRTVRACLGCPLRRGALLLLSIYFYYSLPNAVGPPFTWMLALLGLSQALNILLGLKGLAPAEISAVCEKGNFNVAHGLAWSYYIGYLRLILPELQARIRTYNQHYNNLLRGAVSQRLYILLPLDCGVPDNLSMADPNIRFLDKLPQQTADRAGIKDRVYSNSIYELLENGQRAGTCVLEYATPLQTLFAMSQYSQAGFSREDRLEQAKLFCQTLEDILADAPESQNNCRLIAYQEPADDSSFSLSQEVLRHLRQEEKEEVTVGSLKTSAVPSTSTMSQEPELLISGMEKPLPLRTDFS
T3 sequence (Q86WV6 whole entry H232R): as the sequence (Q86WV6 whole entry R71H/G230A/H232R/R293Q) above, with H71R, A230G, Q293R counted along it
T4 sequence (Q86WV6 whole entry, stated change not applied): as the sequence (Q86WV6 whole entry R71H/G230A/H232R/R293Q) above, with H71R, A230G, R232H, Q293R counted along it
T2 sequence (Q86WV6 whole entry G230A/H232R/R293Q): as the sequence (Q86WV6 whole entry R71H/G230A/H232R/R293Q) above, with H71R counted along it
T5 sequence (Q86WV6 whole entry H232R/R293Q): as the sequence (Q86WV6 whole entry R71H/G230A/H232R/R293Q) above, with H71R, A230G counted along it
Description for in vitro: Cellular Permeability Measurements
Caco-2 cells were obtained from Leibniz Institute DSMZ-German Collection of Microorganisms and Cell Cultures (Braunschweig, Germany) and cultured in DMEM (Dulbecco's modified Eagle medium) containing (in final concentrations) 10% FCS (fetal calf serum), 1% NEAA (non-essential amino acids), 2 mM Glutamin, 100 U/mL Penicillin and 100 μg/mL Streptomycin. Caco-2 cells were seeded either onto 24-well Transwell inserts (Corning, #3379) for bidirectional permeability assays at a density of 160,000 cells/cm^2 and cultured for 3 weeks, with media change on every second day.
For bidirectional permeability assays 10 mM DMSO stock solutions were diluted in transport buffer (final concentrations: 128.13 mM NaCl, 5.36 mM KCl, 1 mM MgSO4, 1.8 mM CaCl2, 4.17 mM NaHCO3, 1.19 mM Na2HPO4, 0.41 mM NaH2PO4, 15 mM 2-[4-(2-hydroxyethyl)piperazin-1-yl]ethanesulfonic acid (HEPES), 20 mM glucose, pH 7.4) containing 0.25% bovine serum albumin to a final concentration of 10 μM of the test compounds and added to the apical or basal compartment. Cells were incubated with the compounds for up to 2 h. Samples from the opposite compartment were taken at different timepoints.
Compound concentrations in the compartments were quantified using a RapidFire-based high-throughput HPLC/MS/MS system (high performance liquid chromatography/mass spectrometry; Bio-Cius) that was customized to a fully automated and flexible platform, termed RIAS. In this modified setup, the sample was aspirated by a vacuum pump into a 10 μL sample loop for 250 ms and flushed onto a C4 cartridge (3.8 μL bed volume; Bio-Cius) with the aqueous mobile phase (99.9% water, 0.09% formic acid, and 0.01% TFA; flow rate 1.5 mL/min). Prior to bioanalysis samples were spiked with internal standard solution and diluted with acetonitrile (ACN) for protein precipitation. Measurement was operated in multiplereaction monitoring (MRM) mode. Quantification was performed using external calibration. A solid-phase extraction step retained the analyte for 3000 ms while interfering matrix (e.g., buffer components) was removed. With a simple step gradient, the analyte was back-eluted from the cartridge for 3,000 ms with the organic mobile phase (99.9% acetonitrile/methanol [1:1, v:v], 0.09% formic acid, and 0.01% TFA) and flushed into the mass spectrometer at a flow rate of 1.25 mL/min. Afterwards, the cartridge was re-equilibrated with the aqueous mobile phase for 500 ms (flow rate 1.5 mL/min).
Apparent permeability coefficients in the apical to basal direction (Papp,AB) and in the basal to apical direction (Papp,BA) and efflux ratios were calculated as follows: Papp,AB=QAB/(C0·s·t) Papp,BA=QBA/(C0·s·t) Efflux ratio=Papp,BA/Papp,AB
where Q is the amount of compound recovered in the receiver compartment after the incubation time t, C0 the initial compound concentration given to the donor compartment, and s the surface area of the Transwell inserts. […] In addition, transepithelial electrical resistance (TEER) values are measured for each plate before the permeability assay, and total recovery in donor and receiver compartments was determined for each compound.

With `Cc1cccc2c(-c3cccc4nn(C)cc34)nn(-c3ccc(N4CCC(S(C)(=O)=O)CC4)nc3)c12` [compound 18, 1-[6-(4-methanesulfonylpi-peridin-1-yl)pyridin-3-yl]-2′,7-dimethyl-1H,2′H-3,4′-biindazole], the pEC50 at STING HAQ-variant is 6.15; at STING AQ-variant, 6.22; at STING H232R-variant, 6.70; at STING R232H-variant it was 6.70; on STING R293Q-variant it was 6.15. This molecule also registered a Papp A→B at 10 μM in the data set “in vitro” of 36 ×10⁻⁶ cm/s. In addition, the efflux ratio at 10 μM in the data set “in vitro” stood at 0.3. The “thermal shift (ΔTm)” value in data set [1] worked out at 22 K.
On to `Cc1cccc2c(-c3cccc4nn(C)cc34)nn(-c3ccc(N4CCC5(CC4)CNC5=O)nc3)c12` [compound 10, 7-(5-{2′,7-dimethyl-1H,2′H-[3,4′-biindazol]-1-yl}pyri-din-2-yl)-2,7-dia-zaspiro[3.5]nonan-1-one], for which the negative-log EC50 (pEC50) on STING HAQ-variant is 5.68; on STING AQ-variant, 5.66; on STING H232R-variant it was 6.40; on STING R232H-variant it was 6.30; at STING R293Q-variant, 5.68. Also, in “in vitro”, the Papp A→B at 10 μM amounted to 26 ×10⁻⁶ cm/s. Besides, the “thermal shift (ΔTm)” value in data set [1] amounted to 20 K.
Take `Cc1cccc2c(-c3cccc4nn(C)cc34)nn(-c3ccc(N4CCC(NS(C)(=O)=O)CC4)nc3)c12` [compound 56, N-[1-(5-{2′,7-dimethyl-1H,2′H-[3,4′-biindazol]-1-yl}pyridin-2-yl)piperidin-4-yl]methanesulfonamide]: the pEC50 on STING HAQ-variant is 5.52; at STING AQ-variant it was 5.68; on STING H232R-variant, 6.40; on STING R232H-variant, 6.10; at STING R293Q-variant it was 5.66. Further, the apical-to-basolateral permeability (Papp A→B) at 10 μM in “in vitro” is 21 ×10⁻⁶ cm/s. Also, the efflux ratio at 10 μM in the data set “in vitro” was found to be 0.6. Also, the “thermal shift (ΔTm)” value in data set [1] is listed as 20 K.
For `Cc1cc2c(-c3nn(-c4ccc(N5CC6C(C5)C6C(=O)O)nc4)c4c(C)cccc34)cccn2n1` (stereo not drawn) [compound 68, 3-[5-(7-methyl-3-{2-methylpyrazolo[1,5-a]pyr-idin-4-yl}-1H-indazol-1-yl)pyridin-2-yl]-3-azabicy-clo[3.1.0]hexane-6-car-boxylic acid], the negative logarithm of the EC50 (pEC50) on STING HAQ-variant is 5.80; at STING AQ-variant, 6.10; at STING H232R-variant, 6.15; at STING R232H-variant, 6.15; on STING R293Q-variant it was 6.10. The Papp A→B at 10 μM in “in vitro” stood at 16 ×10⁻⁶ cm/s. Also, the efflux ratio at 10 μM in the data set “in vitro” is 1. Besides, the “thermal shift (ΔTm)” value in data set [1] was determined as 24 K.
Turning to `CC(=O)N1CCN(c2ccc(-n3nc(-c4cccc5nn(C)cc45)c4cccc(C)c43)cn2)CC1` [compound 15, 1-[4-(5-{2′,7-dimethyl-1H,2′H-[3,4′-biindazol]-1-yl}pyridin-2-yl)piperazin-1-yl]ethan-1-one], the pEC50 is 6.00 at STING HAQ-variant; 6.15 at STING AQ-variant; 6.70 at STING H232R-variant; 6.70 on STING R232H-variant; 6.15 at STING R293Q-variant. In addition, in the data set “in vitro”, the Papp A→B at 10 μM stood at 26 ×10⁻⁶ cm/s. Further, the efflux ratio at 10 μM in the data set “in vitro” was determined as 0.5. For the same molecule, in data set [1], the “thermal shift (ΔTm)” value worked out at 21 K.

The values are drawn from patent US12065427B2, “Heterocyclic compounds capable of activating STING” (BOEHRINGER INGELHEIM INTERNATIONAL GMBH, priority 2021, dated 2024).
